The record followed here is patent US8999940B2 (Ipsen Pharma S.A.S., priority 2008, dated 2015).

Molecules are shown by their SMILES. Some results are limits rather than exact numbers.

Data set [1] addresses T1, human recombinant GIP receptor (Homo sapiens, UniProt P48546).
T1 construct: expressed in transfected cells; host or cells: CHO-K1 clonal cells (membrane preparation)
T1 sequence (P48546 22-466): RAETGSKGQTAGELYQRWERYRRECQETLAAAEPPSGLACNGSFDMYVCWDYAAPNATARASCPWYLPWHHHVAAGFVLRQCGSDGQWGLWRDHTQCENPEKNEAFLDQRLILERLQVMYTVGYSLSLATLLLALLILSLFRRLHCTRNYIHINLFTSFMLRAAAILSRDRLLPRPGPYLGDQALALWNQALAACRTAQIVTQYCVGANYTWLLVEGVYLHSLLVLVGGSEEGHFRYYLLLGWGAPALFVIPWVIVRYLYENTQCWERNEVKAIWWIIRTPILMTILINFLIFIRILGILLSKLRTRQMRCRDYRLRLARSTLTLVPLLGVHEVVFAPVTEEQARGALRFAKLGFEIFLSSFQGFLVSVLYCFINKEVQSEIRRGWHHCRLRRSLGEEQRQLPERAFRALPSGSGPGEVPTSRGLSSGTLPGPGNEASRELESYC
Briefly: In vitro hGIP receptor binding assay. As to the method:
A. In Vitro hGIP Receptor Binding Assay […] The incubations were terminated by rapid filtration through GF/C filters (pre-soaked in 0.5% polyethylenimine) using a Brandel filtration manifold. Each tube and filter were then washed three times with 5-ml aliquots of ice-cold buffer.

Data set [2] can be described thus: Human plasma half-life assay. Type of data set: in vitro ADME. The conditions noted are these: 37° C., LC-MS, read-out: Human Plasma T½ (converted). As to the method: (§1) B. Human and Rat Plasma Half-Life Assay
(§2) 50 μl was removed at various times, like at 0, 1, 2, 3, 4, 8, 24, 32, 48, 56, 72 hours, mixed with 5 μl formic acid and 150 μL acetonitrile in a microcentrifuge tube, vertexed, and centrifuged for 10 minutes at 10 K rpm. The supernatant was transferred to an injection vial and analyzed by LC-MS. The LC-MS system consisted of an API4000 mass spectrometer with an ESI probe. Positive ion mode and full scan detection were used. HPLC separation was carried out on a Luna 3μ. C8 (2), 2×30 mm column with a gradient from 90% A to 90% B in 10 minutes at a flow rate of 0.3 ml/min. Buffer A was 1% formic acid in water and buffer B was 1% formic acid acetonitrile.

A short description of data set [3]: Rat plasma half-life assay. It is filed as in vitro ADME. The conditions noted are these: 37° C., LC-MS, read-out: Rat Plasma T½ (converted). As to the method: as §1, §2

In the case of `CCCC[C@H](NC(=O)[C@H](C)NC(=O)[C@@H](NC(=O)C1(NC(=O)[C@H](Cc2ccc(O)cc2)NC(=O)[C@H](CC(=O)O)NC(=O)[C@H](CO)NC(=O)[C@@H](NC(=O)[C@H](Cc2ccccc2)NC(=O)[C@@H](NC(=O)CNC(=O)[C@H](CCC(=O)O)NC(=O)C(C)(C)NC(=O)[C@@H](N)Cc2ccc(Cl)cc2)[C@@H](C)O)[C@@H](C)CC)CCCC1)[C@@H](C)CC)C(=O)N[C@@H](CC(=O)O)C(=O)N[C@@H](CCCCN)C(=O)N[C@H](C(=O)N[C@@H](Cc1c[nH]cn1)C(=O)N[C@@H](CCC(N)=O)C(=O)N[C@@H](CCC(N)=O)C(=O)N[C@@H](CC(=O)O)C(=O)N[C@@H](Cc1ccccc1)C(=O)N[C@H](C(=O)N[C@@H](CC(N)=O)C(=O)N[C@@H](Cc1c[nH]c2ccccc12)C(=O)N[C@@H](CC(C)C)C(=O)N[C@@H](CC(C)C)C(=O)N[C@@H](C)C(=O)N[C@@H](CCC(N)=O)C(=O)N[C@@H](CCCCN)C(=O)NCC(=O)N[C@@H](CCCCN)C(=O)N[C@@H](CCCCN)C(=O)N[C@@H](CC(N)=O)C(=O)N[C@@H](CC(=O)O)C(=O)N[C@@H](Cc1c[nH]c2ccccc12)C(=O)N[C@@H](CCCCN)C(=O)N[C@@H](Cc1c[nH]cn1)C(=O)N[C@@H](CC(N)=O)C(=O)N[C@H](C(=O)N[C@H](C(=O)N[C@@H](CCC(N)=O)C(=O)O)[C@@H](C)O)[C@@H](C)CC)C(C)C)[C@@H](C)CC` [Example 20, (Cpa^1, Aib^2, A5c^11, Nle^14)hGIP(1-42)-OH], the Ki (in general, the dissociation constant of the complex between target and ligand, obtained from inhibition or displacement) in data set [1] amounted to 0.0094 µM. The figures for the half-life at 0.1 mg/ml in data set [2] and in data set [3] were more than 74 h and 24.3 h, respectively.

`CCCC[C@H](NC(=O)[C@H](C)NC(=O)[C@@H](NC(=O)C1(NC(=O)[C@H](Cc2ccc(O)cc2)NC(=O)[C@H](CC(=O)O)NC(=O)[C@H](CO)NC(=O)[C@@H](NC(=O)[C@H](Cc2ccccc2)NC(=O)[C@@H](NC(=O)CNC(=O)[C@H](CCC(=O)O)NC(=O)C(C)(C)NC(=O)[C@@H](N)Cc2ccc(CN)cc2)[C@@H](C)O)[C@@H](C)CC)CCCC1)[C@@H](C)CC)C(=O)N[C@@H](CC(=O)O)C(=O)N[C@@H](CCCCN)C(=O)N[C@H](C(=O)N[C@@H](Cc1c[nH]cn1)C(=O)N[C@@H](CCC(N)=O)C(=O)N[C@@H](CCC(N)=O)C(=O)N[C@@H](CC(=O)O)C(=O)N[C@@H](Cc1ccccc1)C(=O)N[C@H](C(=O)N[C@@H](CC(N)=O)C(=O)N[C@@H](Cc1c[nH]c2ccccc12)C(=O)N[C@@H](CC(C)C)C(=O)N[C@@H](CC(C)C)C(=O)N[C@@H](C)C(=O)N[C@@H](CCC(N)=O)C(=O)N[C@@H](CCCCN)C(=O)NCC(=O)N[C@@H](CCCCN)C(=O)N[C@@H](CCCCN)C(=O)N[C@@H](CC(N)=O)C(=O)N[C@@H](CC(=O)O)C(=O)N[C@@H](Cc1c[nH]c2ccccc12)C(=O)N[C@@H](CCCCN)C(=O)N[C@@H](Cc1c[nH]cn1)C(=O)N[C@@H](CC(N)=O)C(=O)N[C@H](C(=O)N[C@H](C(=O)N[C@@H](CCC(N)=O)C(=O)O)[C@@H](C)O)[C@@H](C)CC)C(C)C)[C@@H](C)CC` [Example 21, (4NH2CH2-Phe^1, Aib^2, A5c^11, Nle^14)hGIP(1-42)-OH]: in data set [1], the Ki was found to be 0.095 µM. Further, the figures for the half-life at 0.1 mg/ml in data set [2] and in data set [3] were more than 74 h and 6 h, respectively.

As to `CCCC[C@H](NC(=O)[C@H](C)NC(=O)[C@@H](NC(=O)C1(NC(=O)[C@H](Cc2ccc(O)cc2)NC(=O)[C@H](CC(=O)O)NC(=O)[C@H](CO)NC(=O)[C@@H](NC(=O)[C@H](Cc2ccccc2)NC(=O)[C@@H](NC(=O)CNC(=O)[C@H](CCC(=O)O)NC(=O)C(C)(C)NC(=O)[C@@H](N)Cc2cc(F)c(F)c(F)c2)[C@@H](C)O)[C@@H](C)CC)CCCC1)[C@@H](C)CC)C(=O)N[C@@H](CC(=O)O)C(=O)N[C@@H](CCCCN)C(=O)N[C@H](C(=O)N[C@@H](Cc1c[nH]cn1)C(=O)N[C@@H](CCC(N)=O)C(=O)N[C@@H](CCC(N)=O)C(=O)N[C@@H](CC(=O)O)C(=O)N[C@@H](Cc1ccccc1)C(=O)N[C@H](C(=O)N[C@@H](CC(N)=O)C(=O)N[C@@H](Cc1c[nH]c2ccccc12)C(=O)N[C@@H](CC(C)C)C(=O)N[C@@H](CC(C)C)C(=O)N[C@@H](C)C(=O)N[C@@H](CCC(N)=O)C(=O)N[C@@H](CCCCN)C(=O)NCC(=O)N[C@@H](CCCCN)C(=O)N[C@@H](CCCCN)C(=O)N[C@@H](CC(N)=O)C(=O)N[C@@H](CC(=O)O)C(=O)N[C@@H](Cc1c[nH]c2ccccc12)C(=O)N[C@@H](CCCCN)C(=O)N[C@@H](Cc1c[nH]cn1)C(=O)N[C@@H](CC(N)=O)C(=O)N[C@H](C(=O)N[C@H](C(=O)N[C@@H](CCC(N)=O)C(=O)O)[C@@H](C)O)[C@@H](C)CC)C(C)C)[C@@H](C)CC` [Example 22, (3,4,5F-Phe^1, Aib^2, A5c^11, Nle^14)hGIP(1-42)-OH], the inhibitory constant (Ki) in data set [1] was 0.0311 µM. The half-life at 0.1 mg/ml is more than 74 h in data set [2] and 69.3 h in data set [3].

Consider `CCCC[C@H](NC(=O)[C@H](C)NC(=O)[C@@H](NC(=O)C1(NC(=O)[C@H](Cc2ccc(O)cc2)NC(=O)[C@H](CC(=O)O)NC(=O)[C@H](CO)NC(=O)[C@@H](NC(=O)[C@H](Cc2ccccc2)NC(=O)[C@@H](NC(=O)CNC(=O)[C@H](CCC(=O)O)NC(=O)C(C)(C)NC(=O)[C@@H](N)Cc2cccc(F)c2)[C@@H](C)O)[C@@H](C)CC)CCCC1)[C@@H](C)CC)C(=O)N[C@@H](CC(=O)O)C(=O)N[C@@H](CCCCN)C(=O)N[C@H](C(=O)N[C@@H](Cc1c[nH]cn1)C(=O)N[C@@H](CCC(N)=O)C(=O)N[C@@H](CCC(N)=O)C(=O)N[C@@H](CC(=O)O)C(=O)N[C@@H](Cc1ccccc1)C(=O)N[C@H](C(=O)N[C@@H](CC(N)=O)C(=O)N[C@@H](Cc1c[nH]c2ccccc12)C(=O)N[C@@H](CC(C)C)C(=O)N[C@@H](CC(C)C)C(=O)N[C@@H](C)C(=O)N[C@@H](CCC(N)=O)C(=O)N[C@@H](CCCCN)C(=O)NCC(=O)N[C@@H](CCCCN)C(=O)N[C@@H](CCCCN)C(=O)N[C@@H](CC(N)=O)C(=O)N[C@@H](CC(=O)O)C(=O)N[C@@H](Cc1c[nH]c2ccccc12)C(=O)N[C@@H](CCCCN)C(=O)N[C@@H](Cc1c[nH]cn1)C(=O)N[C@@H](CC(N)=O)C(=O)N[C@H](C(=O)N[C@H](C(=O)N[C@@H](CCC(N)=O)C(=O)O)[C@@H](C)O)[C@@H](C)CC)C(C)C)[C@@H](C)CC` [Example 23, (3F-Phe^1, Aib^2, A5c^11, Nle^14)hGIP(1-42)-OH], for which, in data set [1], the inhibitory constant (Ki) was 0.0027 µM. Moreover, the half-life at 0.1 mg/ml in data set [2] and in data set [3] was more than 74 h in each case.

Consider `CCCC[C@H](NC(=O)[C@H](C)NC(=O)[C@@H](NC(=O)C1(NC(=O)[C@H](Cc2ccc(O)cc2)NC(=O)[C@H](CC(=O)O)NC(=O)[C@H](CO)NC(=O)[C@@H](NC(=O)[C@H](Cc2ccccc2)NC(=O)[C@@H](NC(=O)CNC(=O)[C@H](CCC(=O)O)NC(=O)C(C)(C)NC(=O)[C@@H](N)Cc2ccc(F)c(F)c2)[C@@H](C)O)[C@@H](C)CC)CCCC1)[C@@H](C)CC)C(=O)N[C@@H](CC(=O)O)C(=O)N[C@@H](CCCCN)C(=O)N[C@H](C(=O)N[C@@H](Cc1c[nH]cn1)C(=O)N[C@@H](CCC(N)=O)C(=O)N[C@@H](CCC(N)=O)C(=O)N[C@@H](CC(=O)O)C(=O)N[C@@H](Cc1ccccc1)C(=O)N[C@H](C(=O)N[C@@H](CC(N)=O)C(=O)N[C@@H](Cc1c[nH]c2ccccc12)C(=O)N[C@@H](CC(C)C)C(=O)N[C@@H](CC(C)C)C(=O)N[C@@H](C)C(=O)N[C@@H](CCC(N)=O)C(=O)N[C@@H](CCCCN)C(=O)NCC(=O)N[C@@H](CCCCN)C(=O)N[C@@H](CCCCN)C(=O)N[C@@H](CC(N)=O)C(=O)N[C@@H](CC(=O)O)C(=O)N[C@@H](Cc1c[nH]c2ccccc12)C(=O)N[C@@H](CCCCN)C(=O)N[C@@H](Cc1c[nH]cn1)C(=O)N[C@@H](CC(N)=O)C(=O)N[C@H](C(=O)N[C@H](C(=O)N[C@@H](CCC(N)=O)C(=O)O)[C@@H](C)O)[C@@H](C)CC)C(C)C)[C@@H](C)CC` [Example 24, (3,4F-Phe^1, Aib^2, A5c^11, Nle^14)hGIP(1-42)-OH], for which the inhibitory constant (Ki) in data set [1] came to 0.0157 µM. In addition, the half-life at 0.1 mg/ml in data set [2] and in data set [3] was more than 74 h in each case.
